Results as given in US10858342B2, “Bicyclic imidazole derivatives useful for the treatment of renal diseases, cardiovascular diseases and fibrotic diseases” (Boehringer Ingelheim International GmbH, priority 2016, dated 2020).
Like-named read-outs stand apart in the source and are kept apart here.

What was measured:
Assay type in all cases: biochemical, cynomolgus monkey
[1] = target: cortisol synthase (CYP11B1) (Macaca fascicularis, UniProt A0A2K5ULY1); assay: Inhibition of cortisol synthesis (cynomolgus adrenal mitochondria, cortisol by mass spectrometry)
Experimental: The aldosterone synthase and cortisol synthase inhibition assays employ cynomolgus adrenal gland mitochondria as the source of aldosterone synthase (CYP11B2) and cortisol synthase (CYP11B1). Mitochondria are prepared from frozen cynomolgus monkey adrenal glands according to Method A described in by J. D. McGarry et al. (Biochem. J., 1983, 214, 21-28), with a final resuspension in the AT buffer described in R. Yamaguchi et al. (Cell Death and Differentiation, 2007, 14, 616-624), frozen as aliquots in liquid nitrogen and stored at −80° C. until use. One unit of CYP11B2 and CYP11B1 activity in these preparations is defined as the amount of enzyme that generates 1 pmol of product in one hour under the conditions described.
(§1) Assays are performed in 96-well format in a final volume of 60 microL/well, containing 100 mM potassium phosphate, pH 7.4, 1% (v/v) DMSO, and additionally, 2 μM of corticosterone and 50 units of CYP11B2 activity. Reactions are started by the addition of NADPH to 1 mM and allowed to proceed for 90 minutes at 37° C. Reactions are terminated by the addition of 60 μL of MeCN containing an internal standard for mass spectrometry. One hundred microliters are then transferred to a glass filter plate and centrifuged at 570×g for 5 minutes and the filtrate is collected. Reaction product aldosterone is quantified by mass spectrometry. To determine the assay blank value (0% activity), NADPH is omitted from some reactions.
Dose dependent inhibition is quantified by the inclusion of compound at various concentrations. Maximum activity (100%) is defined by reactions containing NADPH, but without compound. Activities at each concentration are expressed as a percentage of the maximum activity (y-axis) and plotted against concentration of compound (x-axis) and the concentration corresponding to 50% activity (IC50) determined using the XLFit curve-fitting program using a 4-parameter logistic model.
Assays are performed as for aldosterone synthase except for the use of 150 units of CYP11B1, 11-deoxycortisol as substrate and cortisol measured as product.

[2] = target: aldosterone synthase (CYP11B2) (Macaca fascicularis, UniProt A0A2K5UPL9); assay: Inhibition of aldosterone synthase (cynomolgus adrenal mitochondria, aldosterone by mass spectrometry); details: 2 μM corticosterone substrate, 50 units CYP11B2, 90 min, 37° C.; read-out: Aldosterone Inhibition IC50
aldosterone synthase (CYP11B2) (Macaca fascicularis, UniProt A0A2K5UPL9), sequence (A0A2K5UPL9 1-503): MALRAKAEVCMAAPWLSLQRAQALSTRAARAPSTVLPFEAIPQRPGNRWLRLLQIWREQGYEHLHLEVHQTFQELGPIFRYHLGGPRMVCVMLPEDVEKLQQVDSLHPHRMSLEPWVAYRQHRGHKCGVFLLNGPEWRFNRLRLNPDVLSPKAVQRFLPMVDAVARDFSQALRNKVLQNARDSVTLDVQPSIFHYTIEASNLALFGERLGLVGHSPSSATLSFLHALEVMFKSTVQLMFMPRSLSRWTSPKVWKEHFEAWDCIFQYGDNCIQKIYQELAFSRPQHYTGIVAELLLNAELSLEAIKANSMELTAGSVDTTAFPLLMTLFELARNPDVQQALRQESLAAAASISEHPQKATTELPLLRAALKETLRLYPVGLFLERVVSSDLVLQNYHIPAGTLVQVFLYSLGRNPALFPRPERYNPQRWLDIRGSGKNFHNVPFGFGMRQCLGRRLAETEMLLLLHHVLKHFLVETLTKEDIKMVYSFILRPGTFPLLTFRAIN
Experimental: (§2) The aldosterone synthase and cortisol synthase inhibition assays employ cynomolgus adrenal gland mitochondria as the source of aldosterone synthase (CYP11B2) and cortisol synthase (CYP11B1). […] One unit of CYP11B2 and CYP11B1 activity in these preparations is defined as the amount of enzyme that generates 1 pmol of product in one hour under the conditions described.
(§3) The compounds of the invention may be evaluated for aldosterone synthase inhibition by the following assay:
as §1
(§4) Dose dependent inhibition is quantified by the inclusion of compound at various concentrations. Maximum activity (100%) is defined by reactions containing NADPH, but without compound.

[3] = tested on: aldosterone synthase (CYP11B2); assay: as above; details: selectivity for aldosterone synthase inhibition over cortisol synthase (CYP11B1) inhibition, fold
Experimental: as §2, §3, §1, §4

[4] = 11-deoxycortisol substrate, 150 units CYP11B1; read-out: Cortisol Inhibition IC50
[5] = read-out: Cortisol Inhibition IC50; 11-deoxycortisol substrate, 150 units CYP11B1

Compound	IC50 [1, 4] [nM]	IC50 [2] [nM]	Selectivity [3]	IC50 [1, 5] [nM]
O=C1CCCc2ncn(-c3ccc4c(c3)OCCCO4)c21 [C-AAJ, 3-(3,4-Dihydro-2H-benzo[b][1,4]dioxepin-7-yl)-3,5,6,7-tetrahydro-benzoimidazol-4-one]	> 30000	440	67	
N#Cc1ccc(-n2cnc3c2C(=O)CCC3)c(C2CC2)c1 [C-AAK, 3-Cyclopropyl-4-(7-oxo-4,5,6,7-tetrahydro-benzoimidazol-1-yl)-benzonitrile]	17000	34	500	
N#Cc1ccc(-n2cnc3c2C(=O)CCC3)cc1 [C-AAL, 4-(7-Oxo-4,5,6,7-tetrahydro-benzoimidazol-1-yl)-benzonitrile]	4600	19	250	
Cn1c(=O)oc2cc(-n3cnc4c3C(=O)CCC4)ccc21 [C-AAM, 3-Methyl-6-(7-oxo-4,5,6,7-tetrahydro-benzoimidazol-1-yl)-3H-benzooxazol-2-one]	> 30000	120	240	
CN1C(=O)COc2cc(-n3cnc4c3C(=O)CCC4)ccc21 [C-AAN, 4-Methyl-7-(7-oxo-4,5,6,7-tetrahydro-benzoimidazol-1-yl)-4H-benzo[1,4]oxazin-3-one]	> 30000	84	360	
Cc1cc(-n2cnc3c2C(=O)CC2(CCOCC2)C3)ccc1C#N [C-AAO, 2-Methyl-4-(7-oxospiro[4,6-dihydrobenzoimidazole-5,4′-tetrahydropyran]-1-yl)benzonitrile]	2300	77	30	
CN1C(=O)CCc2cc(-n3cnc4c3C(=O)CC3(CCOCC3)C4)ccc21 [C-AAP, 3-(1-Methyl-2-oxo-3,4-dihydroquinolin-6-yl)spiro[5,7-dihydrobenzoimidazole-6,4′-tetrahydropyran]-4-one]	> 30000	460	65	
O=C1CC2(CCOCC2)Cc2ncn(-c3ccc(Cl)cc3)c21 [C-AAR, 3-(4-Chloro-phenyl)-6,6-3-o-tetrahydropyran-3,5,6,7-tetrahydro-benzoimidazol-4-one]	5000	69	73	
N#Cc1ccc(-n2cnc3c2C(=O)CC2(CCOCC2)C3)cc1 [C-AAS, 4-(7-Oxospiro[4,6-dihydrobenzimidazole-5,4′-tetrahydropyran]-1-yl)benzonitrile]	14000	240	61	
N#Cc1ccc(-n2cnc3c2C(=O)CC2(CCC2)C3)cc1 [C-AAT, 4-(7-Oxospiro[4,6-dihydrobenzimidazole-5,1′-cyclobutan]-1-yl)benzonitrile]	480	3.8	130	
Cc1cc(-n2cnc3c2C(=O)CC2(CCC2)C3)ccc1C#N [C-AAU, 2-Methyl-4-(7-oxospiro[4,6-dihydrobenzimidazole-5,1′-cyclobutan]-1-yl)benzonitrile]	51	10	5.0	
CN1C(=O)CCc2cc(-n3cnc4c3C(=O)CC3(CCC3)C4)ccc21 [C-AAV, 3-(1-Methyl-2-oxo-3,4-dihydroquinolin-6-yl)spiro[5,7-dihydrobenzimidazole-6,1′-cyclobutane]-4-one]	14000	47	300	
N#Cc1ccc(-n2cnc3c2C(=O)CC2(CC2)C3)cc1Cl [C-AAW, 3-(3-Chloro-4-cyano)-6,6-spirocyclopropyl-3,5,6,7-tetrahydrobenzimidazol-4-one]		5	43	220
N#Cc1ccc(-n2cnc3c2C(=O)CC2(CC2)C3)cc1 [C-AAX, 3-(4-Cyanophenyl)-6,6-spirocyclpropyl-3,5,6,7-tetrahydro-benzimidazol-4-one]	1900	8.5	230	
O=C1CCCc2ncn(-c3ccc4c(c3)CCCN4)c21 [C-ABB, 3-(1,2,3,4-Tetrahydro-quinolin-6-yl)-3,5,6,7-tetrahydro-benzoimidazol-4-one]	> 30000	250	120	
CC1(C)CC(=O)c2c(ncn2-c2ccc(F)c(F)c2)C1 [C-ABC, 3-(3,4-Difluoro-phenyl)-6,6-dimethyl-3,5,6,7-tetrahydro-benzimidazol-4-one]	650	10	63	
CC1(C)CC(=O)c2c(ncn2-c2ccc(Cl)c(Cl)c2)C1 [C-ABD, 3-(3,4-Dichloro-phenyl)-6,6,-dimethyl-3,5,6,7-tetrahydro-benzoimidazol-4-one]	370	3.1	120	
CC1(C)CC(=O)c2c(ncn2-c2ccc(C#N)c(Cl)c2)C1 [C-ABE, 2-Chloro-4-(5,5-dimethyl-7-oxo-4,5,6,7-tetrahydro-benzoimidazol-1-yl)-benzonitrile]		1.3	79	110
CC1(C)CC(=O)c2c(ncn2-c2cccc(Cl)c2Cl)C1 [C-ABF, 3-(2,3-Dichloro-phenyl)-6,6-dimethyl-3,5,6,7-tetrahydro-benzoimidazol-4-one]	610	3.8	160	
CC1(C)CC(=O)c2c(ncn2-c2ccc(Cl)cc2Cl)C1 [C-ABG, 3-(2,4-Dichloro-phenyl)-6,6-dimethyl-3,5,6,7-tetrahydro-benzoimidazol-4-one]	500	4.2	120	
CC1(C)CC(=O)c2c(ncn2-c2cc(Cl)cc(Cl)c2)C1 [C-ABH, 3-(3,5-Dichloro-phenyl)-6,6-dimethyl-3,5,6,7-tetrahydro-benzoimidazol-4-one]	5200	22	240	
CC1(C)CC(=O)c2c(ncn2-c2ccc(F)c(Cl)c2)C1 [C-ABI, 3-(3-Chloro-4-fluoro-phenyl)-6,6-dimethyl-3,5,6,7-tetrahydro-benzoimidazol-4-one]	910	4.8	190	
CC(C)Oc1ccc(-n2cnc3c2C(=O)CC(C)(C)C3)cc1Cl [C-ABJ, 3-(3-Chloro-4-isopropoxy-phenyl)-6,6-dimethyl-3,5,6,7-tetrahydro-benzoimidazol-4-one]	95000	75	1300	
CC1(C)CC(=O)c2c(ncn2-c2cccc(Cl)c2)C1 [C-ABK, 3-(3-Chloro-phenyl)-6,6-dimethyl-3,5,6,7-tetrahydro-benzoimidazol-4-one]	7000	19	370	
CC(=O)c1ccc(-n2cnc3c2C(=O)CC(C)(C)C3)cc1 [C-ABL, 3-(4-Acetyl-phenyl)-6,6-dimethyl-3,5,6,7-tetrahydro-benzoimidazol-4-one]	8800	59	150	
CC1(C)CC(=O)c2c(ncn2-c2ccc(Cl)c(F)c2)C1 [C-ABM, 3-(4-Chloro-3-fluoro-phenyl)-6,6-dimethyl-3,5,6,7-tetrahydro-benzoimidazol-4-one]	770	4.7	160	
CC1(C)CC(=O)c2c(ncn2-c2ccc(Cl)cc2)C1 [C-ABN, 3-(4-Chloro-phenyl)-6,6-dimethyl-3,5,6,7-tetrahydro-benzoimidazol-4-one]	1000	15	67	
CN(C)c1ccc(-n2cnc3c2C(=O)CC(C)(C)C3)cc1 [C-ABO, 3-(4-Dimethylamino-phenyl)-6,6-dimethyl-3,5,6,7-tetrahydro-benzoimidazol-4-one]	35000	130	270	
CC1(C)CC(=O)c2c(ncn2-c2ccc(F)cc2)C1 [C-ABP, 3-(4-Fluoro-phenyl)-6,6-dimethyl-3,5,6,7-tetrahydro-benzoimidazol-4-one]	1100	21	52	
COc1ccc(-n2cnc3c2C(=O)CC(C)(C)C3)cc1 [C-ABR, 3-(4-Methoxy-phenyl)-6,6-dimethyl-3,5,6,7-tetrahydro-benzoimidazol-4-one]	21000	130	150	
